According to patent US8080540B2, “Therapeutically active triazoles and their use” (Abbott Products GmbH, priority 2006, dated 2011):

Molecular target: T1, recombinant human 17β-HSD1 (Homo sapiens, UniProt P14061)
T1 construct: made in house; host or cells: Sf9 insect cells (baculovirus, Bac to Bac Expression System); microsomal fraction used
T1 sequence (P14061 1-328): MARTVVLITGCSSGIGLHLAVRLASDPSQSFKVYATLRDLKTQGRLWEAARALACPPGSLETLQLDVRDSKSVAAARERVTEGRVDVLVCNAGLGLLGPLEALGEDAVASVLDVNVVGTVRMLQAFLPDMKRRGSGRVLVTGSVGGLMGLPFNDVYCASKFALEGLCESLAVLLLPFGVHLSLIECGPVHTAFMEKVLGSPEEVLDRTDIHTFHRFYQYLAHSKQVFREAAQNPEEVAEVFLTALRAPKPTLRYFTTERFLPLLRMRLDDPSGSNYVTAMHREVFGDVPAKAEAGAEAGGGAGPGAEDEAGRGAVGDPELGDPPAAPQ
Test: Inhibition of recombinant human 17β-HSD1 (HPLC assay, conversion of 3H-estrone to estradiol)
Assay type: biochemical
Conditions: 0.5 h, 30 nM 3H-estrone, 1 mM NADPH, 30 min RT, read-out: inhibition of rec. 17 β-HSD1; for inhibition at 0.1 µM: 100 nM inhibitor; for inhibition at 1 µM: 1 μM inhibitor
Protocol: 17β-HSD1 purification: Recombinant baculovirus was generated by the “Bac to Bac Expression System” (Invitrogen). Recombinant bacmid was transfected to Sf9 insect cells using “Cellfectin Reagent” (Invitrogen). 60 h later cells were harvested; the microsomal fraction was isolated as described by Puranen et al. (1994). Aliquots were stored frozen until determination of enzymatic activity. Assay—Inhibition of recombinant human 17β-HSD1: Recombinant protein (0.1 μg/ml) was incubated in 20 mM KH2PO4 pH 7.4 with 30 nM 3H-estrone and 1 mM NADPH for 30 min at RT, in the presence of potential inhibitors at concentrations of 1 μM or 0.1 μM. Inhibitor stock solutions were prepared in DMSO. Final concentration of DMSO was adjusted to 1% in all samples. The enzyme reaction was stopped by addition of 10% trichloroacetic acid (final concentration). Samples were centrifuged in a microtiter plate at 4000 rpm for 10 min. Supernatants were applied to reverse phase HPLC on a Waters Symmetry C18 column, equipped with a Waters Sentry Guard column. Isocratic HPLC runs were performed at RT at a flow rate of 1 ml/min of acetonitrile:water 48:52 as running solvent. Radioactivity was monitored in the eluate by a Packard Flow Scintillation Analyzer. Total radioactivity for estrone and estradiol were determined in each sample and percent conversion of estrone to estradiol was calculated according to the following formula: [formula] • Percent inhibition was calculated as follows: % inhibition=100−% conversion The values “% inhibition” were determined for exemplified compounds, and the results are summarized in table 4 (for 17β-HSD1).

Row | SMILES | inhibition at 0.1 µM | inhibition at 1 µM
1 | C[C@]12CC[C@@H]3c4ccc(O)cc4CC[C@H]3[C@@H]1[C@H](CCn1cc(-c3cc(F)cc(F)c3)nn1)CC2=O [Compound 5, 3-Hydroxy-15β-{2-[4-(3,5-Difluoro-phenyl)-[1,2,3]triazol-1-yl]-ethyl}-estra-1,3,5(10)-trien-17-one] | 87% | 95%
2 | C[C@]12CC[C@@H]3c4ccc(O)cc4CC[C@H]3[C@@H]1[C@@H](CCCn1cc(CCc3ccccc3)nn1)CC2=O [Compound 16, 3-Hydroxy-15α-[3-(4-phenethyl-[1,2,3]triazol-1-yl)-propyl]-estra-1,3,5(10)-trien-17-one] | 38% | 89%
3 | COc1ccc(-c2cn(CCC[C@H]3CC(=O)[C@@]4(C)CC[C@@H]5c6ccc(O)cc6CC[C@H]5[C@H]34)nn2)cc1 [Compound 20, 3-Hydroxy-15α-{3-[4-(4-methoxy-phenyl)-[1,2,3]triazol-1-yl]-propyl}-estra-1,3,5(10)-trien-17-one] | 51% | 87%
4 | Cc1ccc(-c2cn(CCC[C@H]3CC(=O)[C@@]4(C)CC[C@@H]5c6ccc(O)cc6CC[C@H]5[C@H]34)nn2)cc1 [Compound 25, 3-Hydroxy-15α-[3-(4-p-tolyl-[1,2,3]triazol-1-yl)-propyl]-estra-1,3,5(10)-trien-17-one] | 49% | 85%
5 | C[C@]12CC[C@@H]3c4ccc(O)cc4CC[C@H]3[C@@H]1[C@H](CCCCn1cc(CCc3ccccc3)nn1)CC2=O [Compound 33] | 20% | 80%
6 | COc1ccc2c(c1)CC[C@H]1[C@@H]3[C@H](CCCn4cc(-c5ccccc5[N+](=O)[O-])nn4)CC(=O)[C@@]3(C)CC[C@H]21 [Compound 37] | 25% | 80%
7 | COc1ccc2c(c1)CC[C@H]1[C@@H]3[C@H](CCCn4cc(C5CC5)nn4)CC(=O)[C@@]3(C)CC[C@H]21 [Compound 41] | 23% | 77%
8 | CC(C)CCc1cn(CCCC[C@@H]2CC(=O)[C@@]3(C)CC[C@@H]4c5ccc(O)cc5CC[C@H]4[C@H]23)nn1 [Compound 48] | 21% | 73%
9 | CC(C)Cc1cn(CCCCCC[C@@H]2CC(=O)[C@@]3(C)CC[C@@H]4c5ccc(O)cc5CC[C@H]4[C@H]23)nn1 [Compound 58] | 20% | 70%
10 | COc1ccc2c(c1)CC[C@H]1[C@@H]3[C@H](CCCn4cc(-c5ccsc5)nn4)CC(=O)[C@@]3(C)CC[C@H]21 [Compound 59] | 18% | 69%
11 | COc1ccc2c(c1)CC[C@H]1[C@@H]3[C@H](CCCn4cc(-c5ccc(CO)cc5)nn4)CC(=O)[C@@]3(C)CC[C@H]21 [Compound 60] | 19% | 69%
12 | CC(C)CCc1cn(CCCCCC[C@@H]2CC(=O)[C@@]3(C)CC[C@@H]4c5ccc(O)cc5CC[C@H]4[C@H]23)nn1 [Compound 69] | 30% | 64%
13 | C[C@]12CC[C@@H]3c4ccc(O)cc4CC[C@H]3[C@@H]1[C@H](CCCCCCn1cc(-c3cccc(O)c3)nn1)CC2=O [Compound 100] | 7% | 48%
14 | COc1ccc2c(c1)CC[C@H]1[C@@H]3[C@H](CCCCn4cc(C5CC5)nn4)CC(=O)[C@@]3(C)CC[C@H]21 [Compound 111] | 4% | 43%
15 | COc1ccc2c(c1)CC[C@H]1[C@@H]3[C@H](CCCCn4cc(-c5ccc(C)cc5)nn4)CC(=O)[C@@]3(C)CC[C@H]21 [Compound 112] | 12% | 43%
16 | COc1ccc2c(c1)CC[C@H]1[C@@H]3[C@H](CCCCn4cc(CO)nn4)CC(=O)[C@@]3(C)CC[C@H]21 [Compound 122] | 5% | 38%
